Experiments:
[1] = 1% dietary cyclocreatine; cited from earlier work
creatine kinase = conditions: forward reaction, in vitro and in vivo; cited from earlier work
mice, rats and chicks = conditions: fed to mice; cited from earlier work
[2] = cited from earlier work
mice = conditions: up to 1% of diet for 2 weeks or over 4 weeks; cited from earlier work
chicks = conditions: 1% cyclocreatine in diet, newly hatched chicks, cited from earlier work
[3] = test system: striatal tissue after malonate injections; assay: salicylate hydroxyl radical trapping and 3-nitrotyrosine in striatum after intrastriatal malonate injection; format: in vivo; conditions: 1% in diet for two weeks before intrastriatal malonate, FIG. 3
Description: FIG. 3 depicts the production of 2,3 and 2,5 DHBA and 3 nitrotyrosine after intrastriatal injection of malonate in control animals fed with creatine and those fed with cyclocreatine. **p is less than 0.01 compared with uninjected side; #p is less than 0.05 compared with DHBA elevation in controls. Eight animals were used in each group.
The salicylate hydroxyl radical-trapping method was used for measuring levels of hydroxyl radicals in striatal tissue after malonate injections. Eight animals in each group were fed either a normal diet or a diet enriched with 1% creatine or 1% cyclocreatine for two weeks before intrastriatal malonate injections. Animals were injected with 200 mg/kg salicylate intraperitoneally just before the malonate injections and were killed 1 hour later. […] An aliquot of supernatant was analyzed by HPLC with the 16-electrode electrochemical detection (Beal et. al., 1990). Salicylate, 2,3 and 2,5 DHBA, tyrosine, 3-nitrotyrosine were measured electrochemically by oxidation at 840, 240, 120, 600 and 840 mV respectively with retention times of 20.5, 9.4, 6.3, 10.5, 18.2 min respectively. The data were expressed as the ratio of 2,3 and 2,5 DHBA to salicylate to normalize the DHBA concentrations for differing brain concentrations of salicylate. […] 3-Nitrotyrosine and tyrosine concentrations were measured by HPLC with electrochemical detection (Matthews 1998). […]

[4] = test system: patients with cardiac diseases; conditions: up to 8 grams/day, intravenous injection; cited from earlier work

| Molecule | antiviral activity [1] | phosphorylation by creatine kinase (creatine kinase) | tolerability (mice, rats and chicks) | accumulation in different organs ([2]; animals fed e.g. 1% dietary cyclocreatine, mM concentrations) | uptake by muscle, heart and brain ([2]; rats receiving dietary 1% cyclocreatine) | gross adverse effects (mice) | mortality (chicks; in the presence of antibiotics) | growth compared with control chicks (chicks) | nitration of proteins (3-nitrotyrosine) induced by malonate [3] | levels of salicylate derivatives 2,3 DHBA and 2,5 DHBA after malonate ([3]; killed 1 hour later) | adverse side effects [4] |
| --- | --- | --- | --- | --- | --- | --- | --- | --- | --- | --- | --- |
| NC1=NCCN1CC(=O)O [cyclocreatine, 1-carboxymethyl-2-iminoimidazolidine] | observed | phosphorylated efficiently | well-tolerated | accumulation of cyclocreatine in different organs in mM concentrations | taken up by muscle, heart and brain | without gross adverse effects | without significant mortality | grew more slowly | protective effects | protect against increases | – |
| N-phosphoryl creatine [creatine phosphate] | – | – | – | – | – | – | – | – | – | – | no adverse side effects |
